Three compounds from article PMC8291587, “Guanidine Derivatives: How Simple Structural Modification of Histamine H3R Antagonists Has Led to the Discovery of Potent Muscarinic M2R/M4R Antagonists” (ACS Chemical Neuroscience, 2021) can be followed below.

Experiment [1] addresses T1, hM3R (Homo sapiens, UniProt P20309).
T1 construct: host or cells: CHO cells, stably transfected; crude membranes
The experiment is described as follows: hM3R radioligand binding ([3H]NMS, CHO cell membranes). Here is the method: (§1) To clearly explain the obtained outcome, we engaged the radioligand binding experiment. The hM1–hM5 radioligand binding experiments were performed in the membrane fractions of Chinese hamster ovary cells (CHO) stably expressing human variants of muscarinic receptors. N-[^3H]Methylscopolamine was used as the radiolabeled ligand.[39] Three compounds were selected from ex vivo screening on guinea pig ileum. […] This compound is also not completely selective for the remaining muscarinic receptor subtypes with −log Ki values over 6. […] It is also a potent muscarinic M1R antagonist, and the M1R/M2R selectivity ratio is <10. It is worth noting that such nonspecific anticholinergics are often associated with neuropsychiatric and cognitive disturbances and that nonselective muscarinic M1R/M2R antagonists, such as scopolamine, can produce cognitive deficits. Further structural modifications of ADS10227 should be used to increase selectivity toward the M2R, as these may present fewer potential side effects associated with the activation of the phospholipase C signaling pathway.
(§2) The culture was derived from CHO cells stably transfected with the genes of human variants of muscarinic receptors. These were purchased from Missouri S&T cDNA Resource Center (Rolla, MO, USA). Cell cultures and crude membranes were prepared as described previously.[45] […]
(§3) All radioligand binding experiments were optimized and carried out according to general guidelines.[39] […] N-Methylscopolamine binding was measured directly in saturation experiments using six concentrations (30–1000 pM) of [^3H]NMS during incubation for 1 h (M2R), 3 h (M1R, M3R, and M4R), or 5 h (M5R). For calculations of the equilibrium dissociation constant (KD), concentrations of free [^3H]NMS were calculated by subtraction of bound radioactivity from total radioactivity in the sample and fitting eq 1 (Experimental Data analysis section). The binding of the tested ligands was determined in competition experiments with 100 pM [^3H]NMS. […] Nonspecific binding was determined in the presence of 1 μM unlabeled atropine. […]

For experiment [2], the target named is T2, hM4R (Homo sapiens, UniProt P08173).
T2 construct: host or cells: CHO cells, stably transfected; crude membranes
T2 sequence (P08173 1-479): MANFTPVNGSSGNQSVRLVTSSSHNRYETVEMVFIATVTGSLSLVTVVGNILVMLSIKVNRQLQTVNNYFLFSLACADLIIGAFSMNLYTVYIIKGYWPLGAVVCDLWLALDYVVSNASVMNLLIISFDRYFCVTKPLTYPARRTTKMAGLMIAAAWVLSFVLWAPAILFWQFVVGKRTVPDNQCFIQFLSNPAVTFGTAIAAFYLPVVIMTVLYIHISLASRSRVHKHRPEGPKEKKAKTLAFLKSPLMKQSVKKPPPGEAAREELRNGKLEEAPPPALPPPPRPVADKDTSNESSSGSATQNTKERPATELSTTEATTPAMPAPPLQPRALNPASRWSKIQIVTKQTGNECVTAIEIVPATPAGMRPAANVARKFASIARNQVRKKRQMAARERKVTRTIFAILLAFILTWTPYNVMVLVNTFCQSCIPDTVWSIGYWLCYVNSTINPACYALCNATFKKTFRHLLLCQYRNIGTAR
In words: hM4R radioligand binding ([3H]NMS, CHO cell membranes). Here is the method: as §1, §2, §3

Experiment [3] deals with T3, hM2R (Homo sapiens, UniProt P08172).
T3 construct: host or cells: CHO cells, stably transfected; crude membranes
T3 sequence (P08172 1-466): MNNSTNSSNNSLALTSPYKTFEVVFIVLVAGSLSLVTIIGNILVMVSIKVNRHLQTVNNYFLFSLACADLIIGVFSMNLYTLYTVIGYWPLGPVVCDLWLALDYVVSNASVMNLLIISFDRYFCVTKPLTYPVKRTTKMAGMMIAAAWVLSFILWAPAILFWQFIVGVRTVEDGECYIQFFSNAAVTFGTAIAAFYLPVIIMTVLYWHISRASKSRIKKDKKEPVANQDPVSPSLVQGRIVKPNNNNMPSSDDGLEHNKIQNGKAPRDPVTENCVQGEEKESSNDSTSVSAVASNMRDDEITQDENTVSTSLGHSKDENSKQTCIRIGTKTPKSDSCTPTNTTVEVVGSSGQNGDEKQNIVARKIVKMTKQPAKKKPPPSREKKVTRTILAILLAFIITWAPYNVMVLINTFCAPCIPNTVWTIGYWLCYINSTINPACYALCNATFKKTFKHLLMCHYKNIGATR
In words: hM2R radioligand binding ([3H]NMS, CHO cell membranes). The protocol: as §1
The culture was derived from CHO cells stably transfected with the genes of human variants of muscarinic receptors. These were purchased from Missouri S&T cDNA Resource Center (Rolla, MO, USA). Cell cultures and crude membranes were prepared as described previously.[45] The cells were grown to confluence in 75 cm^2 flasks in Dulbecco’s modified Eagle’s medium (DMEM) supplemented with 10% fetal bovine serum, and 2 million cells were subcultured to 100 mm Petri dishes. The medium was supplemented with 5 mM butyrate for the last 24 h of cultivation to increase receptor expression. Cells were detached by mild trypsinization on day 5 after subculture. Detached cells were washed twice in 50 mL of phosphate-buffered saline and 3 min centrifugation at 250g. […]
as §3

The mark [4] stands for this setting: read-out: hM3R -log(Ki) ± sem (converted).

Where two headings read alike, the source gives them in different places.

T1 sequence (P20309 whole entry): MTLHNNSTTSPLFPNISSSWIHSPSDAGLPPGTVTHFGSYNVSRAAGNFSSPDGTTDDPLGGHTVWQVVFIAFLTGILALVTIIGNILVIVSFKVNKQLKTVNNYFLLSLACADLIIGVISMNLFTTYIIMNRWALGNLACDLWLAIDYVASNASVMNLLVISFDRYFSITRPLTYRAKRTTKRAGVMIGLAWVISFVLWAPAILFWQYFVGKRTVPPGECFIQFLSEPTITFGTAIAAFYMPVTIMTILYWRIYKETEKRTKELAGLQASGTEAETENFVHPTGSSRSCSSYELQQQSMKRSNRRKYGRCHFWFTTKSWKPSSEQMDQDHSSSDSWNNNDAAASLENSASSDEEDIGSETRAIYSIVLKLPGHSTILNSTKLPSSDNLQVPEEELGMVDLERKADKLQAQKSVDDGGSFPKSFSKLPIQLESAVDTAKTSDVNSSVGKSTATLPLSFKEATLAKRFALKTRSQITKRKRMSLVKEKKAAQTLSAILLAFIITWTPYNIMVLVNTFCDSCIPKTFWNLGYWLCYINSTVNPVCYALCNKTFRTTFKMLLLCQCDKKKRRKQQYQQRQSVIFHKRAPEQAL

In general, Ki refers to a measure of affinity in units of concentration, obtained from inhibition or displacement. With `N=C(N)N(CCCCN1CCN(CCCCCCCOc2ccccc2)CC1)Cc1ccccc1` [ADS1017], the Ki in experiment [1] (hM3R -log(Ki) ± sem) was 347 nM; in experiment [2], 68 nM; in experiment [3], 37.2 nM.
In the case of `N=C(N)N(CCCCN1CCN(C[C@H]2CC[C@@H](COc3ccccc3)CC2)CC1)Cc1ccccc1` [ADS10227, 1-{4-{4-{[4-(phenoxymethyl)cyclohexyl]methyl}piperazin-1-yl}but-1-yl}-1-(benzyl)guanidine], the Ki in experiment [1] (setting [4]) is 51.3 nM; in experiment [2] ([3H]NMS, CHO membranes, read-out: affinity to hM4R (Ki)), 5.1 nM; in experiment [3] ([3H]NMS, CHO membranes, read-out: hM2R -log(Ki) ± sem (converted)), 2.82 nM. In experiment [3] (from hM1R and hM2R binding), the M1R/M2R selectivity ratio is on record as below 10.
For the compound `[H]/N=C(/N)N(CCCCN1CCN(CC2CCC(COc3ccccc3)CC2)CC1)Cc1ccc(C(F)(F)F)cc1` (stereo not shown) [ADS10239], the Ki in experiment [1] (setting [4]) is 123 nM; in experiment [2] ([3H]NMS, CHO membranes, read-out: hM4R -log(Ki) ± sem (converted)), 15.1 nM; in experiment [3] ([3H]NMS, CHO membranes, read-out: affinity to hM2R (Ki)), 52 nM.
